Measured values from patent publication US9133206B2, “Benzodiazepine and pyridodiazepine derivatives” (AbbVie Inc., priority 2010, dated 2015).

Test system: SK-N-SH human neuroblastoma cells
Experiment: Serum Deprivation/JC-1 Mitochondrial Membrane Potential (MMP) Assay
Format: cell-based
Conditions: Homo sapiens; for EC50 / Emax: SK-N-SH; for EC50: 18 h, serum deprivation ~18 hours, JC-1 ratio normalized to peak value for 10 μM dimebolin, single curve fit to mean data of n=2-3; for Emax: percent maximal intensity in JC-1 ratio normalized to peak value for 10 μM dimebolin, read-out: JC-1 max %; for Emax / activation at 3 µM: serum deprivation; for activation at 3 µM: single dose 3 μM, JC-1 ratio normalized to peak value for 10 μM dimebolin (n=2-4), read-out: JC-1 max % (@ 3 μM)
In short: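 SK-N-SH cells serum-deprived ~18 h with compound, then stained with JC-1 for 40 min at 37 °C; red (560/595 nm) to green (485/535 nm) ratio reports membrane potential. Response normalized to peak from 10 μM dimebolin; EC50 from fit to mean of n=2–3, or single-dose 3 μM; DMSO ≤1%.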

In the case of `O=C(N1CCOCC1)N1Cc2ccccc2N2CCN(c3ncccn3)CC2C1` (stereo not shown) [Example 80, morpholin-4-yl[3-(pyrimidin-2-yl)-1,2,3,4,4a,5-hexahydropyrazino[1,2-a][1,4]benzodiazepin-6(7H)-yl]methanone], the EC50 is reported as 11900 nM and the Emax is reported as 97%.
With `O=C(N1CCOCC1)N1Cc2ccccc2N2CCN(S(=O)(=O)c3ccccc3)CC2C1` (stereo not shown) [Example 81, morpholin-4-yl[3-(phenylsulfonyl)-1,2,3,4,4a,5-hexahydropyrazino[1,2-a][1,4]benzodiazepin-6(7H)-yl]methanone] the EC50 was 9920 nM and the Emax was 129%.
With `O=C(N1CCOCC1)N1Cc2ccccc2N2CCN(c3ccc(Cl)cc3)CC2C1` (stereo not shown) [Example 82, [3-(4-chlorophenyl)-1,2,3,4,4a,5-hexahydropyrazino[1,2-a][1,4]benzodiazepin-6(7H)-yl](morpholin-4-yl)methanone] the EC50 was 5110 nM and the Emax was 127%.
Work on `CC(=O)N1CCN2c3ccccc3CN(C(=O)N3CCOCC3)CC2C1` (stereo not shown) [Example 83, 1-[6-(morpholin-4-ylcarbonyl)-1,2,4a,5,6,7-hexahydropyrazino[1,2-a][1,4]benzodiazepin-3(4H)-yl]ethanone] yielded an EC50 greater than 31600 nM and an Emax of 34%.
For `CC(=O)N1CCC(C(=O)N2Cc3ccccc3N3CCN(Cc4ccccc4)CC3C2)CC1` (stereo not shown) [Example 84, 1-{4-[(3-benzyl-1,2,3,4,4a,5-hexahydropyrazino[1,2-a][1,4]benzodiazepin-6(7H)-yl)carbonyl]piperidin-1-yl}ethanone], the activation at 3 µM was 183%.
`O=C(c1cn[nH]c1)N1Cc2ccccc2N2CCN(Cc3ccccc3)CC2C1` (stereo not shown) [Example 85, (3-benzyl-1,2,3,4,4a,5-hexahydropyrazino[1,2-a][1,4]benzodiazepin-6(7H)-yl)(1H-pyrazol-4-yl)methanone] showed an activation at 3 µM of 80%.
`O=C(c1ccn[nH]1)N1Cc2ccccc2N2CCN(Cc3ccccc3)CC2C1` (stereo not shown) [Example 86, (3-benzyl-1,2,3,4,4a,5-hexahydropyrazino[1,2-a][1,4]benzodiazepin-6(7H)-yl)(1H-pyrazol-5-yl)methanone] gave an EC50 of 3140 nM and an Emax of 218%.
For `O=C(CN1CCOCC1)N1Cc2ccccc2N2CCN(Cc3ccccc3)CC2C1` (stereo not shown) [Example 87, 1-(3-benzyl-1,2,3,4,4a,5-hexahydropyrazino[1,2-a][1,4]benzodiazepin-6(7H)-yl)-2-(morpholin-4-yl)ethanone], the activation at 3 µM was 83%.
Compound `O=C(c1cscn1)N1Cc2ccccc2N2CCN(Cc3ccccc3)CC2C1` (stereo not shown) [Example 88, (3-benzyl-1,2,3,4,4a,5-hexahydropyrazino[1,2-a][1,4]benzodiazepin-6(7H)-yl)(1,3-thiazol-4-yl)methanone] has an activation at 3 µM of 139%.
`O=C(c1cncs1)N1Cc2ccccc2N2CCN(Cc3ccccc3)CC2C1` (stereo not shown) [Example 89, (3-benzyl-1,2,3,4,4a,5-hexahydropyrazino[1,2-a][1,4]benzodiazepin-6(7H)-yl)(1,3-thiazol-5-yl)methanone] was tested, and the EC50 was 1830 nM and the Emax was 140%.
Compound `O=C(c1ccno1)N1Cc2ccccc2N2CCN(Cc3ccccc3)CC2C1` (stereo not shown) [Example 90, (3-benzyl-1,2,3,4,4a,5-hexahydropyrazino[1,2-a][1,4]benzodiazepin-6(7H)-yl)(1,2-oxazol-5-yl)methanone] has an activation at 3 µM of 114%.
`O=C(CCN1CCCC1)N1Cc2ccccc2N2CCN(Cc3ccccc3)CC2C1` (stereo not shown) [Example 91, 1-(3-benzyl-1,2,3,4,4a,5-hexahydropyrazino[1,2-a][1,4]benzodiazepin-6(7H)-yl)-3-(pyrrolidin-1-yl)propan-1-one] was tested, and the activation at 3 µM was 78%.
With `O=C(CC1CC1)N1Cc2ccccc2N2CCN(Cc3ccccc3)CC2C1` (stereo not shown) [Example 92, 1-(3-benzyl-1,2,3,4,4a,5-hexahydropyrazino[1,2-a][1,4]benzodiazepin-6(7H)-yl)-2-cyclopropylethanone] the EC50 was 2470 nM and the Emax was 174%.
For `O=C(c1ccc[nH]1)N1Cc2ccccc2N2CCN(Cc3ccccc3)CC2C1` (stereo not shown) [Example 93, (3-benzyl-1,2,3,4,4a,5-hexahydropyrazino[1,2-a][1,4]benzodiazepin-6(7H)-yl)(1H-pyrrol-2-yl)methanone], the EC50 was 1560 nM and the Emax was 185%.
For `O=C(c1ccoc1)N1Cc2ccccc2N2CCN(Cc3ccccc3)CC2C1` (stereo not shown) [Example 94, (3-benzyl-1,2,3,4,4a,5-hexahydropyrazino[1,2-a][1,4]benzodiazepin-6(7H)-yl)(3-furyl)methanone], the EC50 was 2760 nM and the Emax was 172%.
For `Cc1cc(C(=O)N2Cc3ccccc3N3CCN(Cc4ccccc4)CC3C2)c(C)n1C` (stereo not shown) [Example 95, (3-benzyl-1,2,3,4,4a,5-hexahydropyrazino[1,2-a][1,4]benzodiazepin-6(7H)-yl)(1,2,5-trimethyl-1H-pyrrol-3-yl)methanone], the EC50 was 282 nM and the Emax was 189%.
Compound `Cc1cc(C(=O)N2Cc3ccccc3N3CCN(Cc4ccccc4)CC3C2)c(C)[nH]1` (stereo not shown) [Example 96, (3-benzyl-1,2,3,4,4a,5-hexahydropyrazino[1,2-a][1,4]benzodiazepin-6(7H)-yl)(2,5-dimethyl-1H-pyrrol-3-yl)methanone] has an EC50 of 856 nM and an Emax of 180%.
`NC(=O)C1(C(=O)N2Cc3ccccc3N3CCN(Cc4ccccc4)CC3C2)CC1` (stereo not shown) [Example 97, 1-[(3-benzyl-1,2,3,4,4a,5-hexahydropyrazino[1,2-a][1,4]benzodiazepin-6(7H)-yl)carbonyl]cyclopropanecarboxamide] was tested, and the activation at 3 µM was 32%.
`O=C(Cc1cccnc1)N1Cc2ccccc2N2CCN(Cc3ccccc3)CC2C1` (stereo not shown) [Example 98, 1-(3-benzyl-1,2,3,4,4a,5-hexahydropyrazino[1,2-a][1,4]benzodiazepin-6(7H)-yl)-2-(pyridin-3-yl)ethanone] was tested, and the activation at 3 µM was 107%.
`O=C(NCC(=O)N1Cc2ccccc2N2CCN(Cc3ccccc3)CC2C1)c1ccco1` (stereo not shown) [Example 99, N-[2-(3-benzyl-1,2,3,4,4a,5-hexahydropyrazino[1,2-a][1,4]benzodiazepin-6(7H)-yl)-2-oxoethyl]-2-furamide] gave an EC50 of 3150 nM and an Emax of 165%.
With `CC(C)C(=O)N1Cc2ccccc2N2CCN(Cc3ccccc3)CC2C1` (stereo not shown) [Example 100, 1-(3-benzyl-1,2,3,4,4a,5-hexahydropyrazino[1,2-a][1,4]benzodiazepin-6(7H)-yl)-2-methylpropan-1-one] the activation at 3 µM was 118%.
In the case of `Cc1noc(C)c1C(=O)N1Cc2ccccc2N2CCN(Cc3ccccc3)CC2C1` (stereo not shown) [Example 101, (3-benzyl-1,2,3,4,4a,5-hexahydropyrazino[1,2-a][1,4]benzodiazepin-6(7H)-yl)(3,5-dimethyl-1,2-oxazol-4-yl)methanone], the activation at 3 µM is reported as 149%.
In the case of `Cc1cnc(C(=O)N2Cc3ccccc3N3CCN(Cc4ccccc4)CC3C2)cn1` (stereo not shown) [Example 102, (3-benzyl-1,2,3,4,4a,5-hexahydropyrazino[1,2-a][1,4]benzodiazepin-6(7H)-yl)(5-methylpyrazin-2-yl)methanone], the activation at 3 µM is reported as 110%.
In the case of `CN1CCN(CC(=O)N2Cc3ccccc3N3CCN(Cc4ccccc4)CC3C2)CC1` (stereo not shown) [Example 103, 1-(3-benzyl-1,2,3,4,4a,5-hexahydropyrazino[1,2-a][1,4]benzodiazepin-6(7H)-yl)-2-(4-methylpiperazin-1-yl)ethanone], the activation at 3 µM is reported as 42%.
With `O=C(c1ccco1)N1Cc2ccccc2N2CCN(Cc3ccccc3)CC2C1` (stereo not shown) [Example 104, (3-benzyl-1,2,3,4,4a,5-hexahydropyrazino[1,2-a][1,4]benzodiazepin-6(7H)-yl)(2-furyl)methanone] the activation at 3 µM was 178%.
